The text below walks through data of patent US9983200B2, “Compositions and methods for predicting age of onset of a lysosomal storage disease or a disease associated with a lysosomal defect” (The United States of America, as represented by the …, priority 2013, dated 2018).

Entries after “also recorded” stand apart in the source; their conditions may differ.

The test system of assay [1] is fibroblasts isolated from an individual with NPC1 disease (NPC-25). Kind of assay: LysoTracker Red staining quantified by FACS in NPC1 patient fibroblasts. The assay is classed as cell-based, human. To be noted: for LysoTracker Red staining intensity (NPC1-associated cholesterol storage defects): NPC-25 cells; for increased LysoTracker staining in NPC1 patient fibroblasts: Example 2, FIGS. 8 and 9; for fold change in fluorescence (stained/unstained): NPD patient samples, Example 1, FIGS. 4, 5A, 5B; for normalizing fold-change in fluorescence in cells of NPD subjects: in vitro. The procedure:
(D) Bar graphs showing the percentage change of LysoTracker (y-axis) staining intensity in untreated NPC-25 cells (blue bar, set to 100%) as compared to NPC25 cells treated with MβCD, α-T or δ-T (green bars). […] MβCD (Sigma-Aldrich, St. Louis, Mo. cat. #C4555) was resuspended in sterile H2O to a 1 mM stock solution, while α-T and δ-T were dissolved in DMSO to 40 μM, therefore the untreated controls were no drug added for methyl-β-cyclodextrin treatment, and DMSO only added for α-T and δ-T treatment. Statistical analyses performed using Prism (GraphPad).
Cells were cultured in DMEM with fetal bovine serum, L-glutamine, and antibiotics at 5% CO2 in a 37° C. incubator. Cell staining was carried out as follows: Lysotracker-Red Staining Protocol: • Day1—Change media 24 hours before FACS analysis, if treating cells with methyl beta cyclodextrin add the drug as well. • Day2—Note: WORK IN THE DARK, (PROTECT TUBES FROM THE LIGHT while using lysotracker-red) • Dilute LYSOTRACKER-red (1:1000) for a final concentration of 1 μM with culture media. • Incubate cells with lysotracker in the incubator (37° C.) for 30 minutes. • Aspirate media and wash twice with 1×PBS (2 mls each time). • Add 300 μls of Trypsin • Resuspend cells into 5 mls of media and centrifuge at 1000 rpm for 10 minutes in order to obtain pellet. • Resuspend the pellet into 500 uls of media and transfer to FACS vials at 4° C. in the dark. • Perform FACS analysis.
The fluorescence of the cell samples was quantified before and after staining and the fold change in fluorescence was calculated as the ratio of fluorescent intensity after dye/cell autofluorescence. This change was then plotted as a function of time.
Cells were plated onto 60 mm tissue culture dishes and cultured to 70-80% confluency. Media were replaced 24 h prior to analysis. On the day of analysis, cells were incubated at 37° C. for 30 min in fresh media containing 1 μM LysoTracker Red dye (LysoTracker) in 3 mL medium/60 mm dish. Cells were then given two PBS washes, trypsinized, pelleted and resuspended in 500 μL medium. FACS data were collected on 10,000 cells using a FACSCalibur (Becton Dickinson Biosciences, Franklin Lakes, N.J.) equipped with Cell Quest software and analyzed using FlowJo (Tree Star). Fold change in LysoTracker staining was calculated as the ratio of geometric means of stained/unstained samples. Duplicate biological replicates were analyzed on three different days, totaling 6 independent samples per cell line.
(In general: Flow cytometry measures light scatter and fluorescence of single cells or particles in a stream.)

The test system of assay [2] is cultured cells. To be noted: cited from earlier work.
The test system of assay [3] is fibroblasts (NPC1, NPC2, Wolman, Batten, Fabry, Farber, Niemann-Pick A, Sanfilippo type B, Tay-Sachs diseases). To be noted: 40 μM, fibroblasts of NPC1, NPC2, Wolman; cited from earlier work.
Assay [4] concerns control fibroblasts (CTL1). Kind of assay: LysoTracker Red staining quantified by FACS in control (wild type) fibroblasts. The assay is classed as cell-based, human. The note with it: wild type samples, Example 1, FIGS. 4, 5A. How it is done: (A, B) Histograms of FACS analysis of control fibroblasts (A, CTL1) and fibroblasts isolated from an individual with NPC1 disease (B, NPC-25). […] Pink line indicates distribution of unstained cells; blue line indicates LysoTracker-stained cells transfected with an empty control vector (pLenti6.2 Vector/V5 DEST, Invitrogen); green line indicates LysoTracker-stained cells transfected with a human NPC1 cDNA expression vector (Origene, Rockville, Md.; cat. #SC120010). At 72 hours post-transfection, cells were stained with LysoTracker Red dye and analyzed by FACS. […]
The fluorescence of the cell samples was quantified before and after staining and the fold change in fluorescence was calculated as the ratio of fluorescent intensity after dye/cell autofluorescence. […]
Cells were plated onto 60 mm tissue culture dishes and cultured to 70-80% confluency. […] FACS data were collected on 10,000 cells using a FACSCalibur (Becton Dickinson Biosciences, Franklin Lakes, N.J.) equipped with Cell Quest software and analyzed using FlowJo (Tree Star). Fold change in LysoTracker staining was calculated as the ratio of geometric means of stained/unstained samples. Duplicate biological replicates were analyzed on three different days, totaling 6 independent samples per cell line.

Assay [5] has as its system fibroblasts isolated from an individual with NPC1 disease (NPC-25). Kind of assay: LysoTracker Red staining quantified by FACS in NPC1 patient fibroblasts. It counts as cell-based, human. The note with it: NPC4 cells.

For the molecule `Cc1c(C)c2c(c(C)c1O)CC[C@@](C)(CCC[C@H](C)CCC[C@H](C)CCCC(C)C)O2` [α-T, α-tocopherol], the “LysoTracker Red staining intensity (NPC1-associated cholesterol storage defects)” value (“LysoTracker Red staining intensity” below) in assay [1] (40 μM α-T for 72 hours, vs DMSO only) was “not”.
With `OC[C@H]1O[C@@H]2O[C@H]3[C@H](O)[C@@H](O)[C@@H](O[C@H]4[C@H](O)[C@@H](O)[C@@H](O[C@H]5[C@H](O)[C@@H](O)[C@@H](O[C@H]6[C@H](O)[C@@H](O)[C@@H](O[C@H]7[C@H](O)[C@@H](O)[C@@H](O[C@H]8[C@H](O)[C@@H](O)[C@@H](O[C@H]1[C@H](O)[C@H]2O)O[C@@H]8CO)O[C@@H]7CO)O[C@@H]6CO)O[C@@H]5CO)O[C@@H]4CO)O[C@@H]3CO` [β-cyclodextrin], the “removal of cholesterol from cultured cells” value in assay [2] is “remove cholesterol”.
As to `Cc1cc(O)cc2c1O[C@](C)(CCC[C@H](C)CCC[C@H](C)CCCC(C)C)CC2` [δ-T, δ-tocopherol], in assay [1], the “increased LysoTracker staining in NPC1 patient fibroblasts” value is listed as “lessened”. The “LysoTracker Red staining intensity” value in assay [1] (40 μM δ-T for 72 hours, vs DMSO only) was “relieved NPC1-associated cholesterol storage defects”. In addition, in assay [3], the “lysosomal storage defects (including LysoTracker staining)” value is reported as “reduced lysosomal storage defects”.
With Methyl-β-cyclodextrin [MβCD], the “increased LysoTracker staining in NPC1 patient fibroblasts” value in assay [1] is “lessened”. In addition, the “LysoTracker Red staining intensity” value in assay [1] (300 μM MβCD for 24 hours, vs untreated cells (100%)) was “relieved NPC1-associated cholesterol storage defects”. The “fold change in fluorescence (stained/unstained)” value in assay [1] and in assay [4] was “reduced” each time. In addition, the “removal of cholesterol from cultured cells” value in assay [2] was “remove cholesterol; also recorded: more efficient than β-cyclodextrin”.
As to Tocopherol, in assay [1], the “fold change in fluorescence (stained/unstained)” value is “effective in reducing the fold change in fluorescence” and the “normalizing fold-change in fluorescence in cells of NPD subjects” value was “useful in normalizing fold-change in fluorescence”.
In the case of cyclodextrin, in assay [1], the “normalizing fold-change in fluorescence in cells of NPD subjects” value was “useful in normalizing fold-change in fluorescence; also recorded: normalize the fold-change in fluorescence”. The “fluorescence values by FACS (FIG. 1A)” value in assay [5] is listed as “corrected”.
